Results from publication PMC5218480 (PLoS ONE, 2017).

System: MV-4-11 cells
Experiment: Gene expression microarray analysis (Affymetrix PrimeView) and GSEA
Type: cell-based, human
Set-up: RFU PODN (11730768_x_at) / Fold change /veh PODN (11730768_x_at) / RFU LINC00158 (11744669_a_at) / Fold change /veh LINC00158 (11744669_a_at) / RFU DUSP10 (11751237_a_at) / Fold change /veh DUSP10 (11751237_a_at) / RFU ID3 (11757404_x_at) / Fold change /veh ID3 (11757404_x_at) / RFU PLEKHG5 (11737974_s_at) / Fold change /veh PLEKHG5 (11737974_s_at) / RFU LRRC4B (11730491_at) / Fold change /veh LRRC4B (11730491_at) / RFU GIMAP4 (11747438_a_at) / Fold change /veh GIMAP4 (11747438_a_at) / RFU KRT8 (11758183_x_at) / Fold change /veh KRT8 (11758183_x_at) / RFU CNN1 (11734310_a_at) / Fold change /veh CNN1 (11734310_a_at) / RFU VPS37D (11726825_at) / Fold change /veh VPS37D (11726825_at) / RFU C10orf10 (11716522_x_at) / Fold change /veh C10orf10 (11716522_x_at) / RFU KIR2DL2 /// KIR2DL4 /// KIR2DL5A /// KIR2DL5B /// KIR2DS1 /// KIR2DS2 /// KIR2DS3 /// KIR2DS4 /// KIR3DL3 /// KIR3DL3 /// KIR3DS1 (11738374_at) / Fold change /veh KIR2DL2 /// KIR2DL4 /// KIR2DL5A /// KIR2DL5B /// KIR2DS1 /// KIR2DS2 /// KIR2DS3 /// KIR2DS4 /// KIR3DL3 /// KIR3DL3 /// KIR3DS1 (11738374_at) / RFU C1QL1 (11718748_at) / Fold change /veh C1QL1 (11718748_at) / RFU TMPRSS4 (11747572_a_at) / Fold change /veh TMPRSS4 (11747572_a_at) / RFU HAMP (11756126_x_at) / Fold change /veh HAMP (11756126_x_at) / RFU RNFT2 (11725882_a_at) / Fold change /veh RNFT2 (11725882_a_at) / RFU NR4A2 (11747474_a_at) / Fold change /veh NR4A2 (11747474_a_at) / RFU ABCC12 (11746883_a_at) / Fold change /veh ABCC12 (11746883_a_at) / RFU TMEM136 (11760407_x_at) / Fold change /veh TMEM136 (11760407_x_at) / RFU CLDN22 /// WWC2 (11732394_at) / Fold change /veh CLDN22 /// WWC2 (11732394_at) / RFU HLA-DPB1 (11760878_x_at) / Fold change /veh HLA-DPB1 (11760878_x_at) / RFU SPINT1 (11716480_a_at) / Fold change /veh SPINT1 (11716480_a_at) / RFU GAP43 (11754022_s_at) / Fold change /veh GAP43 (11754022_s_at) / RFU A4GNT (11735810_at) / Fold change /veh A4GNT (11735810_at) / RFU PRB3 (11715151_x_at) / Fold change /veh PRB3 (11715151_x_at) / RFU TUBB4B (11761932_at) / Fold change /veh TUBB4B (11761932_at) / RFU CAPN14 (11732068_a_at) / Fold change /veh CAPN14 (11732068_a_at) / RFU TMCC2 (11721928_a_at) / Fold change /veh TMCC2 (11721928_a_at) / RFU IRGQ (11745062_a_at) / Fold change /veh IRGQ (11745062_a_at) / RFU FAM174B (11720279_a_at) / Fold change /veh FAM174B (11720279_a_at) / RFU TMPRSS4 (11748680_a_at) / Fold change /veh TMPRSS4 (11748680_a_at) / RFU FAM212B (11763350_a_at) / Fold change /veh FAM212B (11763350_a_at) / RFU PLEKHG5 (11743358_a_at) / Fold change /veh PLEKHG5 (11743358_a_at) / RFU ZSCAN30 (11745921_a_at) / Fold change /veh ZSCAN30 (11745921_a_at) / RFU CMKLR1 (11741424_a_at) / Fold change /veh CMKLR1 (11741424_a_at) / RFU LOC101060620 /// MAPK8IP1 (11723275_at) / Fold change /veh LOC101060620 /// MAPK8IP1 (11723275_at) / RFU SPTSSB (11747773_x_at) / Fold change /veh SPTSSB (11747773_x_at) / RFU PRSS12 (11739890_at) / Fold change /veh PRSS12 (11739890_at) / RFU BIN1 (11741810_x_at) / Fold change /veh BIN1 (11741810_x_at) / RFU WNT11 (11732464_a_at) / Fold change /veh WNT11 (11732464_a_at) / RFU C10orf10 (11716521_a_at) / Fold change /veh C10orf10 (11716521_a_at) / RFU C5orf56 (11738089_at) / Fold change /veh C5orf56 (11738089_at) / RFU CYB561 (11721691_x_at) / Fold change /veh CYB561 (11721691_x_at) / RFU ANKRD19P (11752326_a_at) / Fold change /veh ANKRD19P (11752326_a_at) / RFU OR2T12 /// OR2T33 /// OR2T8 (11738714_s_at) / Fold change /veh OR2T12 /// OR2T33 /// OR2T8 (11738714_s_at) / RFU VCAN (11748164_a_at) / Fold change /veh VCAN (11748164_a_at) / RFU JSRP1 (11732532_at) / Fold change /veh JSRP1 (11732532_at) / RFU KRTAP10-11 (11738290_x_at) / Fold change /veh KRTAP10-11 (11738290_x_at) / RFU MYO3A (11730013_a_at) / Fold change /veh MYO3A (11730013_a_at) / RFU EBF3 (11725865_a_at) / Fold change /veh EBF3 (11725865_a_at) / RFU CAMK2N1 (11719241_x_at) / Fold change /veh CAMK2N1 (11719241_x_at) / RFU C5orf56 (11738088_a_at) / Fold change /veh C5orf56 (11738088_a_at) / RFU OLFML3 (11715873_a_at) / Fold change /veh OLFML3 (11715873_a_at) / RFU LOC100653217 /// NTM (11731650_a_at) / Fold change /veh LOC100653217 /// NTM (11731650_a_at) / RFU MAPK11 (11762145_a_at) / Fold change /veh MAPK11 (11762145_a_at) / RFU FIZ1 (11724087_x_at) / Fold change /veh FIZ1 (11724087_x_at) / RFU OASL (11726364_x_at) / Fold change /veh OASL (11726364_x_at) / RFU SOX15 (11748057_x_at) / Fold change /veh SOX15 (11748057_x_at) / RFU CD79A (11719716_a_at) / Fold change /veh CD79A (11719716_a_at) / RFU HIST1H1D (11736915_at) / Fold change /veh HIST1H1D (11736915_at) / RFU CASKIN2 (11723855_a_at) / Fold change /veh CASKIN2 (11723855_a_at) / RFU LOC730098 (11760151_x_at) / Fold change /veh LOC730098 (11760151_x_at) / RFU OR4N2 (11742367_at) / Fold change /veh OR4N2 (11742367_at) / RFU PRRT2 (11749266_a_at) / Fold change /veh PRRT2 (11749266_a_at) / RFU SNX32 (11753110_a_at) / Fold change /veh SNX32 (11753110_a_at) / RFU CDHR5 (11726645_a_at) / Fold change /veh CDHR5 (11726645_a_at) / RFU RCAN1 (11760418_a_at) / Fold change /veh RCAN1 (11760418_a_at) / RFU FAM167A (11723789_a_at) / Fold change /veh FAM167A (11723789_a_at) / RFU FAM26E (11764081_at) / Fold change /veh FAM26E (11764081_at) / RFU ISYNA1 (11749810_s_at) / Fold change /veh ISYNA1 (11749810_s_at) / RFU ACY1 (11761880_at) / Fold change /veh ACY1 (11761880_at) / RFU 11764098_at / Fold change /veh 11764098_at / RFU SAMD14 (11745864_x_at) / Fold change /veh SAMD14 (11745864_x_at) / RFU NPB (11741838_a_at) / Fold change /veh NPB (11741838_a_at) / RFU TMPRSS6 (11731388_a_at) / Fold change /veh TMPRSS6 (11731388_a_at) / RFU KRTAP10-2 (11738614_at) / Fold change /veh KRTAP10-2 (11738614_at) / RFU ARHGAP8 /// PRR5-ARHGAP8 (11727945_x_at) / Fold change /veh ARHGAP8 /// PRR5-ARHGAP8 (11727945_x_at) / RFU KRTAP5-7 /// NADSYN1 (11734609_at) / Fold change /veh KRTAP5-7 /// NADSYN1 (11734609_at) / RFU RASL12 (11751679_a_at) / Fold change /veh RASL12 (11751679_a_at) / RFU CDKN2B (11736163_a_at) / Fold change /veh CDKN2B (11736163_a_at) / RFU PRF1 (11729649_at) / Fold change /veh PRF1 (11729649_at) / RFU, ZNF638 /// ZNF638-IT1 / Fold change vs veh, ZNF638 /// ZNF638-IT1 / RFU, PANK3 / Fold change vs veh, PANK3 / RFU, SH3YL1 / Fold change vs veh, SH3YL1 / RFU, ZEB2 / Fold change vs veh, ZEB2 / RFU, NRIP1 / Fold change vs veh, NRIP1 / RFU, PTTG1IP / Fold change vs veh, PTTG1IP / RFU, CAPN2 / Fold change vs veh, CAPN2 / RFU, MED14 / Fold change vs veh, MED14 / RFU, SNORA58 / Fold change vs veh, SNORA58 / RFU, C1orf63 / Fold change vs veh, C1orf63 / RFU, LRRFIP1 / Fold change vs veh, LRRFIP1 / RFU, NDUFAF7 / Fold change vs veh, NDUFAF7 / RFU, SLC12A2 / Fold change vs veh, SLC12A2 / RFU, IBTK / Fold change vs veh, IBTK / RFU, ESF1 / Fold change vs veh, ESF1 / Fold change vs veh, TMEM50B / RFU, TAOK1 / Fold change vs veh, TAOK1 / RFU, ACBD3 / Fold change vs veh, ACBD3 / RFU, TMA16 / Fold change vs veh, TMA16 / RFU, RWDD3 / Fold change vs veh, RWDD3 / RFU, BCAT1 / Fold change vs veh, BCAT1 / RFU, EDEM3 / Fold change vs veh, EDEM3 / RFU, TMEM33 / Fold change vs veh, TMEM33 / RFU, WDR75 / Fold change vs veh, WDR75 / RFU, AHCTF1 / Fold change vs veh, AHCTF1 / RFU, TFRC / Fold change vs veh, TFRC / RFU, ZDHHC17 / Fold change vs veh, ZDHHC17 / RFU, NOM1 / Fold change vs veh, NOM1 / RFU, ARL8B / Fold change vs veh, ARL8B / RFU, ZBTB11 / Fold change vs veh, ZBTB11 / RFU, TAMM41 / Fold change vs veh, TAMM41 / RFU, KIAA1704 /// LOC100996395 / Fold change vs veh, KIAA1704 /// LOC100996395 / RFU, ING1 / Fold change vs veh, ING1 / RFU, TRMT61B / Fold change vs veh, TRMT61B / RFU, FUBP3 / Fold change vs veh, FUBP3 / RFU, TP53 / Fold change vs veh, TP53 / RFU, TNKS2 / Fold change vs veh, TNKS2 / RFU, ZFP14 / Fold change vs veh, ZFP14 / RFU, ACTR2 / Fold change vs veh, ACTR2 / RFU, PPP3R1 / Fold change vs veh, PPP3R1 / RFU, PIK3R1 / Fold change vs veh, PIK3R1 / RFU, HNRNPA1 / Fold change vs veh, HNRNPA1 / RFU, RNF170 / Fold change vs veh, RNF170 / RFU, ZNF28 / Fold change vs veh, ZNF28 / RFU, RNGTT / Fold change vs veh, RNGTT / RFU, OGT / Fold change vs veh, OGT / RFU, BRD1 / Fold change vs veh, BRD1 / RFU, MARS / Fold change vs veh, MARS / RFU, ZNF655 / Fold change vs veh, ZNF655 / RFU, FAHD1 / Fold change vs veh, FAHD1 / RFU, BDP1 / Fold change vs veh, BDP1 / RFU, LRRCC1 / Fold change vs veh, LRRCC1 / RFU, ARID1A / Fold change vs veh, ARID1A / RFU, ZNF146 / Fold change vs veh, ZNF146 / RFU, ZNF330 / Fold change vs veh, ZNF330 / RFU, GPN3 / Fold change vs veh, GPN3 / RFU, C9orf123 / Fold change vs veh, C9orf123 / RFU, N4BP2L2 / Fold change vs veh, N4BP2L2 / RFU, ARFIP1 / Fold change vs veh, ARFIP1 / RFU, FAM179B / Fold change vs veh, FAM179B / RFU, BCL10 / Fold change vs veh, BCL10 / RFU, UHRF1BP1L / Fold change vs veh, UHRF1BP1L / RFU, BET1 / Fold change vs veh, BET1 / RFU, CNOT2 / Fold change vs veh, CNOT2 / RFU, ZNF268 / Fold change vs veh, ZNF268 / Fold change vs veh, ZNF507 / RFU, DGCR2 / Fold change vs veh, DGCR2 / RFU, WDSUB1 / Fold change vs veh, WDSUB1 / Fold change vs veh, HSP90B1 /// MIR3652 / RFU, ADSS / Fold change vs veh, ADSS / RFU, GK / Fold change vs veh, GK / RFU, ZNF148 / Fold change vs veh, ZNF148 / RFU, TAF9 / Fold change vs veh, TAF9 / RFU, SLC1A5 / Fold change vs veh, SLC1A5 / RFU, SLMO2 / Fold change vs veh, SLMO2 / RFU, ABCC4 / Fold change vs veh, ABCC4 / RFU, LOC101060439 /// RAP1B / Fold change vs veh, LOC101060439 /// RAP1B / RFU, RFX7 / Fold change vs veh, RFX7 / RFU, GTPBP10 / Fold change vs veh, GTPBP10 / RFU, CNEP1R1 / Fold change vs veh, CNEP1R1 / RFU, BIVM-ERCC5 /// ERCC5 / Fold change vs veh, BIVM-ERCC5 /// ERCC5 / RFU, ILF3 / Fold change vs veh, ILF3 / RFU 11762660_at / Fold change /veh 11762660_at / RFU VCAN (11757783_s_at) / Fold change /veh VCAN (11757783_s_at) / RFU DDX43 (11728927_at) / Fold change /veh DDX43 (11728927_at) / RFU KRT8 (11758188_x_at) / Fold change /veh KRT8 (11758188_x_at) / RFU NKD1 (11759106_at) / Fold change /veh NKD1 (11759106_at) / RFU SRD5A1 (11742802_a_at) / Fold change /veh SRD5A1 (11742802_a_at) / RFU TPSAB1 /// TPSB2 (11721975_s_at) / Fold change /veh TPSAB1 /// TPSB2 (11721975_s_at) / RFU GSTM3 (11746129_a_at) / Fold change /veh GSTM3 (11746129_a_at) / RFU IL23R (11737362_x_at) / Fold change /veh IL23R (11737362_x_at) / RFU TMEM51 (11727254_a_at) / Fold change /veh TMEM51 (11727254_a_at) / RFU PIWIL2 (11732686_x_at) / Fold change /veh PIWIL2 (11732686_x_at) / RFU ORM1 (11744905_x_at) / Fold change /veh ORM1 (11744905_x_at) / RFU CCDC152 (11743942_at) / Fold change /veh CCDC152 (11743942_at) / RFU ECM1 (11717891_a_at) / Fold change /veh ECM1 (11717891_a_at) / RFU IL23R (11748794_a_at) / Fold change /veh IL23R (11748794_a_at) / RFU TNFAIP8L3 (11732012_x_at) / Fold change /veh TNFAIP8L3 (11732012_x_at) / RFU MBOAT4 (11741988_at) / Fold change /veh MBOAT4 (11741988_at) / RFU 11764193_at / Fold change /veh 11764193_at / RFU TMEM53 (11763286_at) / Fold change /veh TMEM53 (11763286_at) / RFU MAGEB2 (11727129_at) / Fold change /veh MAGEB2 (11727129_at) / RFU TMEM200A (11744735_a_at) / Fold change /veh TMEM200A (11744735_a_at) / RFU CCDC152 (11751479_a_at) / Fold change /veh CCDC152 (11751479_a_at) / RFU FAM211A (11726209_a_at) / Fold change /veh FAM211A (11726209_a_at) / RFU RGS16 (11746705_a_at) / Fold change /veh RGS16 (11746705_a_at) / RFU VCAN (11755009_s_at) / Fold change /veh VCAN (11755009_s_at) / RFU RHOB (11743442_s_at) / Fold change /veh RHOB (11743442_s_at) / RFU RGS16 (11720943_a_at) / Fold change /veh RGS16 (11720943_a_at) / RFU RGS16 (11720944_at) / Fold change /veh RGS16 (11720944_at) / RFU, VPS4B / Fold change vs veh, VPS4B / RFU, CREB1 / Fold change vs veh, CREB1 / RFU, DNAJC13 / Fold change vs veh, DNAJC13 / RFU, GNAQ / Fold change vs veh, GNAQ / RFU, CDK5R1 / Fold change vs veh, CDK5R1 / RFU, ZRANB3 / Fold change vs veh, ZRANB3 / RFU, CUL4A / Fold change vs veh, CUL4A / RFU, CCNY / Fold change vs veh, CCNY / RFU, UFL1 / Fold change vs veh, UFL1 / RFU, COG3 / Fold change vs veh, COG3 / RFU, DIAPH2 / Fold change vs veh, DIAPH2 / RFU, SKA2 / Fold change vs veh, SKA2 / RFU, AFF3 / Fold change vs veh, AFF3 / RFU, LMF1 / Fold change vs veh, LMF1 / RFU, IPO11 / Fold change vs veh, IPO11 / RFU, DFFB / Fold change vs veh, DFFB / RFU, FOXP1 / Fold change vs veh, FOXP1 / RFU, CARD8 / Fold change vs veh, CARD8 / RFU, STRN3 / Fold change vs veh, STRN3 / RFU, ADK / Fold change vs veh, ADK / RFU, RASSF2 / Fold change vs veh, RASSF2 / RFU, WIPF1 / Fold change vs veh, WIPF1 / RFU, LARP1B / Fold change vs veh, LARP1B / RFU, RASA1 / Fold change vs veh, RASA1 / RFU, RB1 / Fold change vs veh, RB1 / RFU, PPFIA1 / Fold change vs veh, PPFIA1 / RFU, MAT2A / Fold change vs veh, MAT2A / RFU, CCT5 / Fold change vs veh, CCT5 / RFU, WDR92 / Fold change vs veh, WDR92 / RFU, CUX1 / Fold change vs veh, CUX1 / RFU, TTC7A / Fold change vs veh, TTC7A / RFU, TMEM135 / Fold change vs veh, TMEM135 / RFU, DEPTOR / Fold change vs veh, DEPTOR / RFU, CPM / Fold change vs veh, CPM / RFU, DNAJB6 / Fold change vs veh, DNAJB6 / RFU, CACNA2D3 / Fold change vs veh, CACNA2D3 / RFU, DTX4 / Fold change vs veh, DTX4 / RFU, TFCP2 / Fold change vs veh, TFCP2 / RFU, GMCL1 /// GMCL1P1 / Fold change vs veh, GMCL1 /// GMCL1P1 / RFU, AEBP2 / Fold change vs veh, AEBP2 / RFU, SNHG1 /// SNORD22 /// SNORD25 /// SNORD26 /// SNORD27 /// SNORD28 /// SNORD29 /// SNORD31 / Fold change vs veh, SNHG1 /// SNORD22 /// SNORD25 /// SNORD26 /// SNORD27 /// SNORD28 /// SNORD29 /// SNORD31 / Fold change (Aza/veh), C12orf56 (ProbeSet 11735607_a_at) / Fold change (ACY-1035/veh), C12orf56 (ProbeSet 11735607_a_at) / Fold change (Aza/veh), FGFR1OP (ProbeSet 11751329_s_at) / Fold change (ACY-1035/veh), FGFR1OP (ProbeSet 11751329_s_at) / Fold change (Aza/veh), VPS36 (ProbeSet 11739960_a_at) / Fold change (ACY-1035/veh), VPS36 (ProbeSet 11739960_a_at) / RFU SYPL1 (11715823_x_at) / Fold change /veh SYPL1 (11715823_x_at) / RFU IGFBP7 (11715501_s_at) / Fold change /veh IGFBP7 (11715501_s_at) / RFU REEP3 (11722064_at) / Fold change /veh REEP3 (11722064_at) / RFU IGLL1 (11728026_x_at) / Fold change /veh IGLL1 (11728026_x_at): dose or concentration left out as unconfirmed
Conditions: MV-4-11 cells, 48 hours

`Nc1ccc(-c2cccs2)cc1NC(=O)c1ccc2c(c1)cc(C1CC1)n2CCN1CCOCC1` [ACY-1035] was tested, and the “RFU NR4A2 (11747474_a_at)” value was 22.98 RFU.
